Data reported in publication PMC10313921, “A living ex vivo platform for functional, personalized brain cancer diagnosis” (Cell Reports Medicine, 2023).

Assays:
Assay type in all cases: cell-based, human
[1] = tested on: MB231Br (breast cancer metastasis to brain); test: Drug screening of MB231Br tumor foci on OBSCs; settings: MB231BR on OBSCs
[2] = tested on: LN229 (established GBM line); test: Drug screening of LN229 tumor foci on OBSCs
Method: (§1) Tumor cells (0.17 μL, 25,000 cells) were seeded onto OBSCs 2h after slicing, with one tumor seeded in the center of each hemisphere for a total of two tumor foci per OBSC. BSM was changed 24h after slicing. Fluorescence images were taken 0 h, 24 h, and 96 h post-seeding for normalization of tumor size. Bioluminescence readouts were also taken at 0 h, 24 h, and 96 h post seeding for assessment of cell viability. Luciferin was added underneath the culture insert and allowed to incubate for 10 min before bioluminescence measurement on an AMI optical imaging system.
(§2) Tumor cells were seeded onto OBSCs 2h after slicing as described above. One day after tumor seeding, six concentrations of each drug were diluted in the media underneath each culture insert, or XRad was applied using an X-Rad 320 Precision X-ray machine (n = 4 tumor foci per concentration; n ≥ 24 tumor foci per drug per cell line). Three days after treatment, the bioluminescence of live tumor cells was measured using an AMI optical imager (Spectral Instruments) and dose-response curves were generated. Tumor survival was normalized to day one tumor fluorescence and compared to an untreated control group.
(§3) Several weighted parameters were factored into an overall drug sensitivity score.
(§4) For DSS parameters 1–6, therapeutic windows were calculated by comparing OBSC toxicity and tumor response at the doses where tumor kill passed through the DSS parameter (Table S1 and S3). For DSS parameter 7, the therapeutic window was calculated by comparing the slopes through the tumor EC50 and the OBSC tox EC50. For DSS parameter 8, the therapeutic window was calculated by comparing the areas under tumor kill and OBSC tox curves. Normalized therapeutic window ratios for DSS parameters 1–8 within each drug-tumor-OBSC interaction were calculated in the following manner: within each window, values ranged from +1 to −1, where values approaching +1 signify increasing tumor kill relative to normal tissue toxicity, and values approaching −1 indicate agents where tumors remained highly viable while toxicity to the normal OBSC tissue was elevated. DSS parameters 9–11 were determined based on the behavior of the tumor in response to the drug, as defined above.
(§5) All individually weighed parameters were added together to generate the DSS. Overall DSS from 0 to 100 signify increasing efficacy in tumor kill relative to OBSC toxicity, while scores from 0 to −100 describe scenarios in which tumors thrive more effectively than OBSCs for a given treatment. Dose-response values were calculated via linear interpolation of raw data, not from best-fit curve equations.

[3] = tested on: U373WT (wild-type established GBM line); test: Drug screening of U373WT tumor foci on OBSCs; settings: U373 WT on OBSCs
Method: as §1, §2, §3, §4, §5

[4] = tested on: U373KO (RAD18 knockout of U373WT via CRISPR); test: Drug screening of U373KO tumor foci on OBSCs; settings: U373 KO on OBSCs
Method: as §1, §2, §3, §4, §5

[5] = tested on: GBM8 (high-passage patient-derived GBM line); test: Drug screening of GBM8 tumor foci on OBSCs; settings: GBM8 on OBSCs
Method: as §1, §2, §3, §4, §5

[6] = tested on: MS21 (low-passage patient-derived GBM line); test: Drug screening of MS21 tumor foci on OBSCs; settings: MS21 on OBSCs
Method: as §1, §2, §3, §4, §5

[7] = tested on: PDIPG (low-passage pediatric patient-derived line); test: Drug screening of PDIPG tumor foci on OBSCs; settings: PDIPG on OBSCs
Method: as §1, §2, §3, §4, §5

[8] = tested on: PIS patient tumor tissue (intracranial sarcoma); test: Drug screening of uncultured patient tumor tissue PIS on OBSCs; settings: PIS patient tissue; scale -100 to +100
Method: as §2
To engraft onto OBSCs, the cryopreserved/thawed or fresh brain tumor tissue was filtered through a 100 μm cell strainer. Each 50 mg of tissue was transfected with 1mL mcherry-FLuc Lentivirus at 1.5e7 vg/ml with 1μL polybrene for 4h at 37°C. After incubation, the brain tumor tissue was washed with PBS three times to remove the residual virus and reconstituted in PBS with a final volume of 150 μL. Then the tissue solution was engrafted atop OBSCs at ∼0.5 mg tissue in 3 μL of PBS on each hemisphere of the slice. The OBSC engrafted with patient tumor tissue was incubated at 37°C with 5% CO2 and 95% humidity. The BSM was changed after 24h and subsequently every 3 days. Tumor treatment studies were executed as described above for tumor lines. The viability of the patient tissue was measured by an AMI optical imaging system with the addition of 1.5 mg/mL luciferin underneath the culture insert.
as §3, §4, §5

[9] = tested on: 7 cell lines (MB231Br, LN229, U373WT, U373KO, GBM8, MS21, PDIPG); test: Drug screening on OBSCs, summary over the panel of seven tumor lines; settings: number of lines responding
Method: as §1, §2, §3, §4, §5

[10] = area under the dose-response curve, trapezoidal rule
[11] = dose required to kill 10% of the tumor
[12] = dose required to kill 25% of the tumor
[13] = dose required to kill 50% of the tumor
[14] = dose required to kill 75% of the tumor
[15] = dose required to kill 90% of the tumor
[16] = dose required to kill 50% of the tumor, read-out: EC50
[17] = dose required to kill 90% of the tumor, read-out: EC90

## N.N.O=C([O-])C1(C(=O)[O-])CCC1.[Pt+2] [Carboplatin]
[1]
  Killing at highest dose: 1.00E+00 fraction of tumor population killed
[1]; [10]
  AUC: 1.89E+02
[1]; [11]
  EC10: 117 µM
[1]; [12]
  EC25: 119 µM
[1]; [13]
  EC50: 122 µM
[1]; [14]
  EC75: 125 µM
[1]; [15]
  EC90: 213 µM
[1]; slope through the EC50
  Slope: -8.00E-02
[2]
  Killing at highest dose: 1.00E+00 fraction of tumor population killed
[2]; [10]
  AUC: 1.22E+02
[2]; [11]
  EC10: 4.17 µM
[2]; [12]
  EC25: 14 µM
[2]; [13]
  EC50: 133 µM
[2]; [14]
  EC75: 193 µM
[2]; [15]
  EC90: 229 µM
[2]; slope through the EC50
  Slope: -4.20E-03
[3]
  Killing at highest dose: 1.00E+00 fraction of tumor population killed
[3]; [10]
  AUC: 3.11E+02
[3]; [11]
  EC10: 93.2 µM
[3]; [12]
  EC25: 103 µM
[3]; [13]
  EC50: 176 µM
[3]; [14]
  EC75: 250 µM
[3]; [15]
  EC90: 700 µM
[3]; slope through the EC50
  Slope: -3.40E-03
[4]
  Killing at highest dose: 9.99E-01 fraction of tumor population killed
[4]; [10]
  AUC: 1.92E+02
[4]; [11]
  EC10: 9.09 µM
[4]; [12]
  EC25: 125 µM
[4]; [13]
  EC50: 172 µM
[4]; [14]
  EC75: 219 µM
[4]; [15]
  EC90: 248 µM
[4]; slope through the EC50
  Slope: -5.29E-03
[5]
  Killing at highest dose: 1.00E+00 fraction of tumor population killed
[5]; [10]
  AUC: 1.03E+01
[5]; [11]
  EC10: 1.16 µM
[5]; [12]
  EC25: 2.91 µM
[5]; [16]
  EC50: 5.81 µM
[5]; [14]
  EC75: 8.72 µM
[5]; [17]
  EC90: 26 µM
[5]; slope through the EC50
  Slope: -8.60E-02
[6]
  Killing at highest dose: 1.00E+00 fraction of tumor population killed
[6]; [10]
  AUC: 1.47E+02
[6]; [11]
  EC10: 59.7 µM
[6]; [12]
  EC25: 71.8 µM
[6]; [16]
  EC50: 91.9 µM
[6]; [14]
  EC75: 157 µM
[6]; [17]
  EC90: 215 µM
[6]; slope through the EC50
  Slope: -1.24E-02
[7]
  Killing at highest dose: 1.00E+00 fraction of tumor population killed
[7]; [10]
  AUC: 1.79E+02
[7]; [11]
  EC10: 4.76 µM
[7]; [12]
  EC25: 20 µM
[7]; [16]
  EC50: 86.1 µM
[7]; [14]
  EC75: 211 µM
[7]; [17]
  EC90: 583 µM
[7]; slope through the EC50
  Slope: -3.59E-03
[8]
  DSS (drug sensitivity score): 88
[9]
  response / killing over the 7 cell lines: robust response
